IC50 data for 13 compounds are collected here from BindingDB's records for doi:10.3109/14756366.2012.723206 (Yanbian University College of Pharmacy, 2013).

Common to all, as to test: Enzymatic Assay
What all share (details): pH 6.5; 30 °C

In assay [1] the target is T1, Tyrosine-protein phosphatase non-receptor type 1 (Homo sapiens, UniProt P18031).
T1 sequence (P18031 whole entry): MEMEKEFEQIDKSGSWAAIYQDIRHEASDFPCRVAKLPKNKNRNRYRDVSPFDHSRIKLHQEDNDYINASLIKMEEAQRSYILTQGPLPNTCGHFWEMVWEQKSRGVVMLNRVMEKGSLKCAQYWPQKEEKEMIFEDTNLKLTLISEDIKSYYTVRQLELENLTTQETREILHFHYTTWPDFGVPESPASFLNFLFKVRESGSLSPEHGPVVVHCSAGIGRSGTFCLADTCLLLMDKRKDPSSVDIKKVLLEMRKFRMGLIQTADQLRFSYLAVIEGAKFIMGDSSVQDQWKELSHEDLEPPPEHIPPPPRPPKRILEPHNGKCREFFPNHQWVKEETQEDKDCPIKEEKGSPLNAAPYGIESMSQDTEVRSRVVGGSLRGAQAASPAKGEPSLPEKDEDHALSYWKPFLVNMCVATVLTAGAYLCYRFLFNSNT
The protocol:
Briefly, the enzymatic activity of the PTP1B catalytic domain was determinedat 30°C by monitoring the hydrolysis of pNPP. […] Assays were performed in a total volume of 100 μL containing 50 mmol/L 3-[N-morpholino]propane-sulfonic acid (MOPs), pH = 6.5, 2 mmol/L pNPP, and 30 nmol/L recombinant PTP1B, as well as the indicated concentrations of the inhibitor.

Assay [2] has as its target T2, Tyrosine-protein phosphatase non-receptor type 2 (Homo sapiens, UniProt P17706).
T2 sequence (P17706 whole entry): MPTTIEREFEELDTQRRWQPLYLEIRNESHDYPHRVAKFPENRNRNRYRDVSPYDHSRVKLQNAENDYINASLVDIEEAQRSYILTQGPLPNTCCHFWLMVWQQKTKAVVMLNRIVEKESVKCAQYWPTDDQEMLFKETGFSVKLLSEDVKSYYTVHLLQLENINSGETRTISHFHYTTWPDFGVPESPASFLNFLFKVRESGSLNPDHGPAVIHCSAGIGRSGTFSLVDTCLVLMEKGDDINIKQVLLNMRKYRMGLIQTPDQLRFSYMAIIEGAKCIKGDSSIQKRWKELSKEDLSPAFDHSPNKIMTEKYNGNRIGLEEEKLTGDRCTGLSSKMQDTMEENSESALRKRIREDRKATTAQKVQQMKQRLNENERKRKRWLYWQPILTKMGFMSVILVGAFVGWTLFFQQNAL

Assay [3] deals with T3, M-phase inducer phosphatase 2 (Homo sapiens, UniProt P30305).
T3 sequence (P30305 whole entry): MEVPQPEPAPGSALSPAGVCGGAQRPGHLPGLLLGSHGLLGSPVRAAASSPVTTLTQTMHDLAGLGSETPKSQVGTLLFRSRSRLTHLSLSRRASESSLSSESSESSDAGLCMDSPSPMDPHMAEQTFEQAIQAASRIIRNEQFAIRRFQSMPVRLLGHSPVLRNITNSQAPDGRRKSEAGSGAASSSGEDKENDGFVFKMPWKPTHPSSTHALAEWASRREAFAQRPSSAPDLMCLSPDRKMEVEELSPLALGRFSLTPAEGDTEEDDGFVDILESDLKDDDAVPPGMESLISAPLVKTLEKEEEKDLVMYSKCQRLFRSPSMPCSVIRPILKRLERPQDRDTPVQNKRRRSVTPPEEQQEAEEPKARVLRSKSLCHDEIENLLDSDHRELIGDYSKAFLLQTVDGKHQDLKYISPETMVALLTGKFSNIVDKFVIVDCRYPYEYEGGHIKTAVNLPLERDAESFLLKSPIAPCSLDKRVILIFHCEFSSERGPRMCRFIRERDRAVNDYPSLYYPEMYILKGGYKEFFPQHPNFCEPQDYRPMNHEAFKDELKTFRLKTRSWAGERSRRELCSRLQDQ

pIC50: −log10 of the molar value.

The term pIC50 denotes −log10 of the IC50, conventionally taken in molar units. A low value points to a high IC50. In turn, `O=C1CC(c2ccccc2Cl)Oc2cc(O)cc(O)c21` (stereo not given) [PTP inhibitor, 4d] had a pIC50 in assay [1] of 4.99.

Regarding `O=C1CC(c2ccc(Cl)cc2Cl)Oc2cc(O)cc(O)c21` (stereo not given) [PTP inhibitor, 4g], in assay [1], the pIC50 is 5.62.

Turning to `O=C1CC(c2ccccc2F)Oc2cc(O)cc(O)c21` (stereo not given) [PTP inhibitor, 4a], in assay [1], the pIC50 was 5.04.

`O=C1CC(c2cccc(F)c2)Oc2cc(O)cc(O)c21` (stereo not given) [PTP inhibitor, 4b] gave a pIC50 in assay [1] of 5.10.

On to `O=C1CC(c2ccccc2)Oc2cc(O)cc(O)c21` (stereo not given) [PTP inhibitor, 4l], for which the pIC50 in assay [1] is 4.43.

For `O=C1CC(c2cccc(Cl)c2)Oc2cc(O)cc(O)c21` (stereo not given) [PTP inhibitor, 4e], the pIC50 in assay [1] was 5.38. Against the preceding compound, the pIC50 is 0.95 log units higher.

In assay [1], `O=C1CC(c2ccc(F)cc2)Oc2cc(O)cc(O)c21` (stereo not given) [PTP inhibitor, 4c] gave a pIC50 of 5.58.

`Cc1ccc(C2CC(=O)c3c(O)cc(O)cc3O2)cc1` (stereo not given) [PTP inhibitor, 4m] showed a pIC50 in assay [1] of 4.85.

`O=C1CC(c2ccc(Cl)cc2)Oc2cc(O)cc(O)c21` (stereo not given) [PTP inhibitor, 4f] showed a pIC50 in assay [1] of 5.44.

Take `O=C1CC(c2ccccc2Br)Oc2cc(O)cc(O)c21` (stereo not given) [PTP inhibitor, 4h]: the pIC50 in assay [1] is 5.31.

Take `O=C1CC(c2cccc(Br)c2)Oc2cc(O)cc(O)c21` (stereo not given) [PTP inhibitor, 4i]: the pIC50 in assay [1] is 5.13.

In assay [1], `O=C1CC(c2ccc(Br)cc2)Oc2cc(O)cc(O)c21` (stereo not given) [PTP inhibitor, 4j] had a pIC50 of 5.46.

Regarding `O=C1CC(c2cccc(C(F)(F)F)c2)Oc2cc(O)cc(O)c21` (stereo not given) [PTP inhibitor, 4k], the figures for the negative logarithm of the IC50 (pIC50) in assay [1], in assay [2] and in assay [3] were 5.63, 5.05 and 5.07, respectively.
